Source: publication PMC4413193, “3-[4-(1H-Indol-3-yl)-1,3-thiazol-2-yl]-1H-pyrrolo[2,3-b]pyridines, Nortopsentin Analogues with Antiproliferative Activity” (Marine Drugs, 2015)

What was measured:
[1] = test system: SF-268; assay: NCI-60 in vitro tumor cell growth inhibition, SF-268 (CNS cancer); format: cell-based; conditions: Homo sapiens, five concentration levels
Method: (§1) All the synthesized thiazoles 3a–k were evaluated by the National Cancer Institute (Bethesda MD) for cytotoxicity against the NCI-60 cell line panel using standard protocols. Initially, the selected derivatives 3c,d,g,h,j,k were tested at a single dose (10^−5 M) on the full panel of approximately 60 human tumor cell lines derived from 9 human cancer cell types, that have been grouped in disease sub-panels including leukemia, non-small-cell lung, colon, central nervous system (CNS), melanoma, ovarian, renal, prostate and breast cancers (data not shown). Compounds 3d and 3k were further selected for full evaluation at five concentration levels (10^−4–10^−8 M).
(§2) The antitumor activity of compounds 3d and 3k was given by three parameters for each cell line: GI50 (the molar concentration of the compound that inhibits 50% net cell growth), TGI (the molar concentration of the compound leading to total inhibition of net cell growth), and LC50 (the molar concentration of the compound that induces 50% net cell death). The average values of mean graph midpoint (MG_MID) were calculated for each of these parameters.

[2] = test system: PC-3; assay: NCI-60 in vitro tumor cell growth inhibition, PC-3 (prostate cancer); format: cell-based; conditions: Homo sapiens, five concentration levels
Method: as §1, §2

[3] = test system: HepG2 cells; assay: Intracellular reactive oxygen species, DCFH flow cytometry; format: cell-based, human; conditions: HepG2, 24 h treatment
Method: Involvement of mitochondria in apoptosis induced in HepG2 cells by the synthesized nortopsentin analogues, was assessed. Loss of mitochondrial trans-membrane potential was indicated by decreased mitochondrial 3,30-dihexyloxacarbocyanine iodide-red fluorescence (Figure 4A).
ROS level was monitored by measuring fluorescence changes that resulted from intracellular oxidation of 2′,7′-dichlorofluorescin diacetate (DCFH). DCFH, at […] final concentration, was added to the cell medium 30 min before the end of the treatment. The cells were collected by centrifugation for 5 min at 2000 rpm at 4 °C, washed, suspended in PBS and immediately subjected to fluorescence-activated cell sorting analysis. At least 1 × 10^4 cells were analyzed for each sample.

[4] = test system: KM12; assay: NCI-60 in vitro tumor cell growth inhibition, KM12 (colon cancer); format: cell-based; conditions: Homo sapiens, five concentration levels
Method: as §1, §2

[5] = test system: CAKI-1; assay: NCI-60 in vitro tumor cell growth inhibition, CAKI-1 (renal cancer); format: cell-based; conditions: Homo sapiens, five concentration levels
Method: as §1, §2

[6] = test system: RXF393; assay: NCI-60 in vitro tumor cell growth inhibition, RXF393 (renal cancer); format: cell-based; conditions: Homo sapiens, RXF 393, five concentration levels
Method: as §1, §2

[7] = test system: MDA-MB-435; assay: NCI-60 in vitro tumor cell growth inhibition, MDA-MB-435 (melanoma); format: cell-based; conditions: Homo sapiens, five concentration levels
Method: as §1, §2

[8] = test system: CCRF-CEM; assay: NCI-60 in vitro tumor cell growth inhibition, CCRF-CEM (leukemia); format: cell-based; conditions: Homo sapiens, five concentration levels 10^−4–10^−8 M
Method: as §1, §2

[9] = test system: UACC-257; assay: NCI-60 in vitro tumor cell growth inhibition, UACC-257 (melanoma); format: cell-based; conditions: Homo sapiens, five concentration levels
Method: as §1, §2

[10] = test system: HCT-116; assay: NCI-60 in vitro tumor cell growth inhibition, HCT-116 (colon cancer); format: cell-based; conditions: Homo sapiens, five concentration levels
Method: as §1, §2

[11] = test system: NCI/ADR-RES; assay: NCI-60 in vitro tumor cell growth inhibition, NCI/ADR-RES (ovarian cancer); format: cell-based; conditions: Homo sapiens, five concentration levels
Method: as §1, §2

[12] = test system: NCI-H522; assay: NCI-60 in vitro tumor cell growth inhibition, NCI-H522 (non-small cell lung cancer); format: cell-based; conditions: Homo sapiens, five concentration levels
Method: as §1, §2

[13] = test system: SF-539; assay: NCI-60 in vitro tumor cell growth inhibition, SF-539 (CNS cancer); format: cell-based; conditions: Homo sapiens, five concentration levels
Method: as §1, §2

[14] = test system: MALME-3M; assay: NCI-60 in vitro tumor cell growth inhibition, MALME-3M (melanoma); format: cell-based; conditions: Homo sapiens, five concentration levels
Method: as §1, §2

[15] = test system: HepG2 cells; assay: Acridine orange/ethidium bromide morphological staining; format: cell-based, human; conditions: HepG2, 24 h, at GI50 concentration
Excerpt: To confirm apoptotic mechanism of cytotoxicity of the nortopsentin analogues, we carried out morphological evaluation of HepG2 cells using AO and EB double staining. […] Moreover, fluorescing orange cells owing to increase of cell permeability to ethidium bromide, cell shrinkage and nuclear fragmentation were also evident as cells in late apoptosis (Figure 3B). Taken together, these findings provided strong evidence that the synthesized nortopsentin analogues induced apoptosis in HepG2 cells.
Acridine orange (AO) stains DNA bright green, allowing visualization of the nuclear chromatin pattern and stains both live and dead cells. Ethidium bromide (EB) stains DNA orange but is excluded by viable cells. Dual staining allows separate enumeration of populations of viable non-apoptotic, viable (early) apoptotic, nonviable (late) apoptotic, and necrotic cells. Live cells appear uniformly green. […] Late apoptotic cells incorporate EB and therefore stain orange, but, in contrast to necrotic cells, the late apoptotic cells show condensed and often fragmented nuclei. Necrotic cells stain orange, but have a nuclear morphology resembling that of viable cells, with no condensed chromatin. Briefly, after HepG2 cells were treated with 3d or 3k compounds for 24 h, the medium was discarded. […]

[16] = test system: human HepG2 hepatocarcinoma cells; assay: MTT cell growth assay, HepG2; format: cell-based; conditions: 72 h, 0.1–10 μM
Method: Cell growth inhibitory activity of compounds 3d and 3k was also investigated on human HepG2 hepatocarcinoma cells, a cell line not included in the NCI panel and of interest in the drug discovery because provided with a very active microsomal system for detoxification of xenobiotics. Monolayer cultures treated for 72 h with 0.1–10 μM concentrations of the compounds were examined by 3-(4,5-dimethylthiazol-2-yl)-2,5-diphenyltetrazolium bromide (MTT) assay for cell growth.
Human cell lines of hepatoma HepG2 and Chang liver were purchased from American Type Culture Collection, Rockville, MD, USA. Cells were grown in RPMI supplemented with 2 mM L-glutamine, 10% FBS, 100 U/mL penicillin, 100 μg/mL streptomycin and 5 μg/mL gentamicin. HepG2 culture medium also contained 1.0 mM sodium pyruvate. Cells were maintained in log phase by seeding twice a week at a density of 3 × 10^8 cells/L in humidified 5% CO2 atmosphere, at 37 °C. […] Cytotoxic activity of the compounds was determined by the MTT quantitative colorimetric assay based on the reduction of the 3-(4,5-dimethyl-2-thiazolyl)-2,5-diphenyl-2H-tetrazolium bromide (MTT) into purple formazan by mitochondrial dehydrogenases of living cells. […] The absorbance at 540 nm was measured in a microplate reader (Bio-RAD, Hercules, CA, USA). […]

[17] = test system: BT-549; assay: NCI-60 in vitro tumor cell growth inhibition, BT-549 (breast cancer); format: cell-based; conditions: Homo sapiens, five concentration levels
Method: as §1, §2

## Cn1cc(-c2csc(-c3cn(C)c4ncccc34)n2)c2ccccc21 [Compound 3d, 1-Methyl-3-[4-(1-methyl-1H-indol-3-yl)-1,3-thiazol-2-yl]-1H-pyrrolo[2,3-b]pyridine]
[1]
  GI50: 2440 nM
[2]
  GI50: 460 nM
[3]
  levels of intracellular ROS: significantly higher than cell control
[4]
  GI50: 210 nM
[5]
  GI50: 380 nM
[6]
  GI50: 330 nM
[7]
  GI50: 30 nM
[8]
  GI50: 400 nM
[9]
  GI50: 13000 nM
[10]
  GI50: 370 nM
[11]
  GI50: 90 nM
[12]
  GI50: 40 nM
[13]
  GI50: 180 nM
[14]
  GI50: 1040 nM
[15]
  morphological evaluation, AO and EB double staining: chromatin condensation and nuclear fragmentation
[16]
  GI50: 1690 nM
[17]
  GI50: 470 nM

## Cn1cc(-c2nc(-c3c[nH]c4ccccc34)cs2)c2cccnc21 [Compound 3k, 3-[4-(1H-Indol-3-yl)-1,3-thiazol-2-yl]-1-methyl-1H-pyrrolo[2,3-b]pyridine]
[1]
  GI50: 940 nM
[2]
  GI50: 560 nM
[3]
  levels of intracellular ROS: significantly higher than cell control
[4]
  GI50: 400 nM
[5]
  GI50: 440 nM
[6]
  GI50: 520 nM
[7]
  GI50: 40 nM
[8]
  GI50: 430 nM
[9]
  GI50: 14200 nM
[10]
  GI50: 390 nM
[11]
  GI50: 150 nM
[12]
  GI50: 50 nM
[13]
  GI50: 250 nM
[14]
  GI50: 740 nM
[15]
  morphological evaluation, AO and EB double staining: chromatin condensation and nuclear fragmentation
[16]
  GI50: 210 nM
[17]
  GI50: 440 nM
